From patent US20030158254A1, “Engineering absorption of therapeutic compounds via colonic transporters” (XenoPort, Inc., priority 2002, published 2003)

Legend:
[1] = target: T1, human PEPT1 (Homo sapiens, UniProt P46059); test: Electrogenic transport (induced current) in Xenopus oocytes transfected with human PEPT1; type: cell-based
T1 construct: Rat and human PEPT1 and PEPT2 transporter cDNAs were subcloned into a modified pGEM plasmid; expressed in transfected cells; host or cells: Xenopus laevis oocytes injected with in vitro transcribed RNA
T1 sequence (P46059 1-708): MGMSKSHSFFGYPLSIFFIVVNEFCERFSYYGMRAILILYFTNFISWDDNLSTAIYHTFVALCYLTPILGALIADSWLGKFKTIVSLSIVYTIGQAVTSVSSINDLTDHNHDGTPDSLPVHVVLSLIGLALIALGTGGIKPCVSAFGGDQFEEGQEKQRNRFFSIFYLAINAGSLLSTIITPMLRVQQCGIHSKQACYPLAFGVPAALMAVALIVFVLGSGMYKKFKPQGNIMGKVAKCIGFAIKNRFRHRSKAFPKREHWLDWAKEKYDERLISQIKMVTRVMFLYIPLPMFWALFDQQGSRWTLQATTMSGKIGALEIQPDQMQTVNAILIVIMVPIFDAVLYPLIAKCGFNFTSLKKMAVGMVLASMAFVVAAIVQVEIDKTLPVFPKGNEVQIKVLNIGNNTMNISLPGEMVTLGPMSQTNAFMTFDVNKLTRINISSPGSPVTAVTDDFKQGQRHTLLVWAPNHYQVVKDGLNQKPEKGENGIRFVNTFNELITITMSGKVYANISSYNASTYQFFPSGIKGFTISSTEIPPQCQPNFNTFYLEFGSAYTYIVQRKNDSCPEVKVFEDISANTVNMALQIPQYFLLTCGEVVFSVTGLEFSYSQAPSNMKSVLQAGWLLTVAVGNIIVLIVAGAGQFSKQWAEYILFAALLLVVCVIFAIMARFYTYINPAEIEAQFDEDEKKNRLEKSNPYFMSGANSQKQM
Protocol: Rat and human PEPT1 and PEPT2 expressing CHO cell lines were prepared as described in PCT Application WO01/20331. Gabapentin-containing dipeptides were evaluated for interaction with the peptide transporters using a radiolabeled substrate uptake assay in a competitive inhibition format, as described in PCT Application WO01/20331. Transport-induced currents were also measured in Xenopus oocytes transfected with rat and human PEPT1 and PEPT2.
RNA preparation: Rat and human PEPT1 and PEPT2 transporter cDNAs were subcloned into a modified pGEM plasmid that contains 5′ and 3′ untranslated sequences from the Xenopus β-actin gene. These sequences increase RNA stability and protein expression. Plasmid cDNA was linearized and used as template for in vitro transcription (Epicentre Technologies transcription kit, 4:1 methylated:non-methylated guanosine triphosphate(GTP)).
Xenopus oocyte isolation. Xenopus laevis frogs were anesthetized by immersion in Tricaine ([…] in deionized water) for 15 min. […]
Electrophysiology measurements. Transport currents were measured 2-14 days after injection, using a standard two-electrode electrophysiology set-up (Geneclamp 500 amplifier, Digidata 1320/PCLAMP software and ADInstruments hardware and software were used for signal acquisition). […]

[2] = test system: Caco-2 cells; test: Caco-2 transport with and without PEPT1/PEPT2 inhibitor Lys(ε-Dansyl)-Leu; type: cell-based, human; settings: apical to basolateral, 600 μM Lys(ε-Dansyl)-Leu, FIG. 2
Excerpt: Caco-2 cells are derived from the human colon and naturally express a number of colon-expressed transporters. The cells can be used to screen agents or conjugates for capacity to be transported by a colon expressed transporter. By screening agents or conjugates in the presence and absence of the specific PEPT1 and PEPT2 inhibitor Lys(ε-Dansyl)-Leu, one can determine whether PEPT1 and/or PEPT2 is a transporter mediating transport of the agent or conjugate. The role of PEPT1 and/or PEPT2 is shown by a decrease in transport in the presence of Lys(ε-Dansyl)-Leu.
1. Caco-2 cells are plated in either a 12 or 24 well Transwell plate and allowed to differentiate for 19-30 days prior to screening. Day 21 cells are optimal.
2. Dilutions of test compounds with or without Lys(ε-Dansyl)-Leu are prepared in assay buffer. pH 6.0
a. Concentrations of compounds are generally 1 mM with or without 600 μM Lys(Dansyl)-leucine.
b. 20 μM Propidium Iodide added as marker.
3. Spent media is aspirated from apical and basolateral chambers. To the apical chambers, 500 μL of test compound with or without Lys(ε-Dansyl)-Leu is added (125 μL for 24 well Transwell plates).
4. In the basolateral chambers, HBSS buffer pH 7.4 is added (1.5 mL for 12 well format, 875 μL for 24 well format).
5. At each timepoint, 50 μL is sampled from basolateral chambers and transferred to a LC/MS plate (Nunc, PP round bottom).
6. […]

CC(C)(N)C(=O)NCC1(CC(=O)O)CCCCC1 [Compound V, a-aminoisobutyryl gabapentin]
Vmax relative to reference substrate Gly-Sar ([1]; 1 mM, oocytes transfected with human PEPT1): 66% | Vmax relative to Gly-Sar in the presence of PEPT inhibitor Lys(ε-Dansyl)-Leu ([1]; human PEPT transfected oocytes, with Lys(ε-Dansyl)-Leu): < 5% | Transport across Caco-2 cells in presence and absence of Lys(ε-Dansyl)-Leu [2]: inhibited by Lys(ε-Dansyl)-Leu
